Source: patent publication US7388002B2, “Nucleosides, preparation thereof and use as inhibitors of RNA viral polymerases” (BioCryst Pharmaceuticals, Inc., priority 2001, dated 2008)

Test system: stably HCV RNA-replicating cell line, AVA5
Assay: Antiviral Activity (HCV Replicon Assay)
Assay type: cell-based
Conditions: intracellular HCV RNA levels (blot hybridization, normalized to B-actin RNA) in AVA5 cells (Huh7-derived), compound once daily for three days, read 24 hours after last dose
Description: HCV NS5B Polymerase Assay
Antiviral activity of the test compounds is assessed (Okuse et al., Antiviral Res. 2005, 65, 23-34) in the stably HCV RNA-replicating cell line, AVA5, derived by transfection of the human hepatoblastoma cell line, Huh7 (Blight et al., Sci. 2000, 290, 1972). Compounds are added to dividing cultures once daily for three days. Media is changed with each addition of compound. Cultures generally start the assay at 30-50% confluence and reach confluence during the last day of treatment. Intracellular HCV RNA levels and cytotoxicity are assessed 24 hours after the last dose of compound.
Triplicate cultures for HCV RNA levels (on 48-well and 96-well plates) and cytotoxicity (on 96-well plates) are used. A total of six untreated control cultures, and triplicate cultures treated with α-interferon and ribavirin serve as positive antiviral and toxicity controls.
Intracellular HCV RNA levels are measured using a conventional blot hybridization method in which HCV RNA levels are normalized to the levels of B-actin RNA in each individual culture (Okuse et al., Antivir. Res. 2005, 65, 23-34). Cytotoxicity is measured using a neutral red dye uptake assay (Korba and Gerin, Antivir. Res. 1992, 19, 55). HCV RNA levels in the treated cultures are expressed as a percentage of the mean levels of RNA detected in untreated cultures.

Compound | % Inhibition at 10 μM [%]
CC(C)(C)OC(=O)COP(=O)(COCCC(CN)n1cnc2c(N)ncnc21)OCC(=O)OC(C)(C)C (racemic) [Compound 34d, (±)-9-[(1-Aminomethyl)(3-(di-tert-butyloxycarbonylmethylphosphono)methoxy)propyl]-adenine] | 60
CC(C)(C)OC(=O)COP(=O)(COCCC(CCO)n1cnc2c(N)ncnc21)OCC(=O)OC(C)(C)C (racemic) [Compound 34e, (±)-9-[(1-(2-Hydroxy)ethyl)(3-(di-tert-butyloxycarbonylmethylphosphono)methoxy)propyl]-adenine] | 41
CC(O)CC(COCP(=O)(OCOC(=O)C(C)(C)C)OCOC(=O)C(C)(C)C)n1cnc2c(N)ncnc21 (racemic) [Compound 56f, (±)-9-[1-[(Di-tert-butylcarbonyloxymethylphosphonomethoxy)methyl][(3-hydroxy)butyl]adenine] | 62
CC(C)(C)OC(=O)COP(=O)(COCCC(CO)n1cnc2c(NC3CCCC3)ncnc21)OCC(=O)OC(C)(C)C (racemic) [Compound 73k, (±)-9-[(1-Hydroxymethyl)(3-(di-tert-butyloxycarbonylmethylphosphono)methoxy)propyl]-6-cyclopentylaminopurine] | 36
CC(C)(C)OC(=O)COP(=O)(COCCC(CO)n1cnc2c(-c3ccccc3)ncnc21)OCC(=O)OC(C)(C)C (racemic) [Compound 76a, (±)-9-[(1-Hydroxymethyl)(3-(di-tert-butyloxycarbonylmethylphosphono)methoxy)propyl]-6-phenylpurine] | 35
CC(C)(C)OC(=O)COP(=O)(COCCC(CO)n1cnc2c(-c3ccsc3)ncnc21)OCC(=O)OC(C)(C)C (racemic) [Compound 76b, (±)-9-[(1-Hydroxymethyl)(3-(di-tert-butyloxycarbonylmethylphosphono)methoxy)propyl]-6-(3-thiophenyl)purine] | 18
CC(O)C(COCP(=O)(OCC(=O)OC(C)(C)C)OCC(=O)OC(C)(C)C)n1cnc2c(-c3ccccc3)ncnc21 (racemic) [Compound 79a, (±)-9-[(1-Hydroxyethyl)(3-(di-tert-butyloxycarbonylmethylphosphono)methoxy)ethyl]-6-phenylpurine] | 48
C=C(CCOCP(=O)(OCC(=O)OC(C)(C)C)OCC(=O)OC(C)(C)C)n1cnc2c(N)ncnc21 [Compound 34h, (±)-9-[(1-Methylene)(3-(di-tert-butyloxycarbonylmethylphosphono)methoxy)propyl]-adenine] | 35
